The record followed here is patent US6384056B1, “Heterocyclic thioesters or ketones for vision and memory disorders” (GPI NIL Holdings, Inc., priority 1998, dated 2002).

As a reminder, the pKi is −log10 of the Ki, conventionally taken in molar units.

pKi: −log10 of the molar value.

Sequence of FKBP12 (P62942 whole entry, species assumed): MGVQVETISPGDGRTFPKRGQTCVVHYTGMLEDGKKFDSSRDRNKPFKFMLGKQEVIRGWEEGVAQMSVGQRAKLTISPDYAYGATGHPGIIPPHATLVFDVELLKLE

Test system in one series: not listed separately
Briefly: Clearance. It counts as in vitro ADME. The settings on record: Table 9 comments.
Regarding `CCC(C)(C)C(=O)C(=O)N1CCC[C@H]1C(=O)SCCC(c1ccccc1)c1ccccc1` [M], the Clearance was determined as 12.5 µL/min. The same measure, in the same setting: to `CN(C)C(=O)N1CCC[C@H]1C(=O)SCCCc1ccccc1` [N] belongs 21.9 µL/min; to `CCC(C)(C)C(=O)C(=O)N1CCC[C@H]1C(=O)CCCCc1cccnc1` [J], 1.5 µL/min; to `CCC(C)(C)C(=O)C(=O)N1CCCC[C@H]1C(=O)SCCC(c1ccccc1)c1ccccc1` [K], 4.5 µL/min.

In turn, `O=C(SCCCc1ccccc1)[C@@H]1CCCN1S(=O)(=O)Cc1ccccc1` [C] had a Clearance of 31.1 µL/min.

For `CCC(C)(C)C(=O)C(=O)N1CCCC[C@H]1C(=O)OC(CCc1ccccc1)CCc1ccccc1` [E], the Clearance stood at 41.8 µL/min. The same measure, in the same setting: to `O=C(OCCCc1cccnc1)[C@@H]1CCCN1C(=S)NC1CCCCC1` [I] belongs 8.0 µL/min; to `CCC(C)(C)C(=O)C(=O)N1CCC[C@H]1C(=O)O` [L], 5.2 µL/min.

A further series has as its system retinal ganglion cell axons. The experiment in a line: protection of retinal ganglion cell axons from degeneration 14 days after optic nerve transection (RT97). In kind it is in vivo. The settings on record: ± SEM. An excerpt: Efficacy of represetative compounds from different immunophilin ligand series in protecting retinal ganglion cell axons from degeneration following optic nerve transection set forth in Table 9.
Efficacy of representative compounds from different immunophilin ligand series in protecting retinal ganglion cell axons from degeneration following optic nerve transection
As for `CCC(C)(C)C(=O)C(=O)N1CCC[C@H]1C(=O)SCCC(c1ccccc1)c1ccccc1` [M], the “RT 97 + RGC axon density 14 days after ON transaction (36 ON axons rescued)” value (“RT 97 + RGC axon density 14 days” below) was −6.3% +3.9% SEM. In the case of `CCC(C)(C)C(=O)C(=O)N1CCCC[C@H]1C(=O)O` [G], the “RT 97 + RGC axon density 14 days” value is given as 34.0% ±4.8% SEM. Turning to `CCC(C)(C)C(=O)C(=O)N1CCC[C@H]1C(=O)CCCCc1cccnc1` [J], the “RT 97 + RGC axon density 14 days” value is on record as 15.8% ±4.8% SEM. The same measure, in the same setting: to `CCC(C)(C)C(=O)C(=O)N1CCCC[C@H]1C(=O)SCCC(c1ccccc1)c1ccccc1` [K] belongs 13.0% ±4.2% SEM; to `O=C(SCCCc1ccccc1)[C@@H]1CCCN1C(=O)NC12CC3CC(CC(C3)C1)C2` [B], 100.0% ±5.2% SEM. On the same count and under the same terms, to `O=C(OCCCc1ccccc1)[C@@H]1CCCCN1S(=O)(=O)Cc1ccccc1` [D] belongs 58.4% ±6.4% SEM; to `O=C(SCCCc1ccccc1)[C@@H]1CCCN1S(=O)(=O)Cc1ccccc1` [C], 60.4% ±3.1% SEM; to `CCC(C)(C)C(=O)C(=O)N1CCCC[C@H]1C(=O)OC(CCc1ccccc1)CCc1ccccc1` [E], 56.6% ±9.4% SEM. Same read-out and setting: as for `CCC(C)(C)C(=O)C(=O)N1CCCC[C@H]1C(N)=O` [H], the figure is 30.3% ±8.0% SEM; as for `CCC(C)(C)C(=O)C(=O)N1CCS[C@H]1C(=O)OCCCc1cccnc1` [F], 55.1% ±5.9% SEM. In the case of `O=C(OCCCc1cccnc1)[C@@H]1CCCN1C(=S)NC1CCCCC1` [I], the “RT 97 + RGC axon density 14 days” value is 23.8% ±5.3 SEM.

Take `CCC(C)(C)C(=O)C(=O)N1CCC[C@H]1C(=O)O` [L]: the “RT 97 + RGC axon density 14 days” value was 7.8% ±3.0% SEM.

In another series the target is FKBP12 (Homo sapiens, UniProt P62942). The experiment in a line: Ki test procedure: inhibition of peptidyl-prolyl isomerase (rotamase) activity, chymotrypsin-coupled assay. In kind it is biochemical. The settings on record: apparent Ki. An excerpt:
The inhibition of the prolyl peptidyl cis-trans isomerase activity of FKBP may be measured as an indicator of this affinity.
Inhibition of the peptidyl-prolyl isomerase (rotamase) activity of the compounds used in the inventive methods and pharmaceutical compositions can be evaluated by known methods described in the literature (Harding et al., Nature, 1989, 341:758-760; Holt et al. J. Am. Chem. Soc., 115:9923-9938).
The cis-trans isomerization of an alanine-proline bond in a model substrate, N-succinyl-Ala-Ala-Pro-Phe-p-nitroanilide, is monitored spectrophotometrically in a chymotrypsin-coupled assay, which releases para-nitroanilide from the trans form of the substrate. The inhibition of this reaction caused by the addition of different concentrations of inhibitor is determined, and the data is analyzed as a change in first-order rate constant as a function of inhibitor concentration to yield the apparent Ki values.
In a plastic cuvette are added […] of ice cold assay buffer (25 mM HEPES, pH 7.8, 100 mM NaCl), […] of FKBP (2.5 mM in 10 mM Tris-Cl pH 7.5, 100 mM NaCl, 1 mM dithiothreitol), […] of chymotrypsin (50 mg/ml in 1 mM HCl) and […] of test compound at various concentrations in dimethyl sulfoxide. The reaction is initiated by the addition of 5 mL of substrate (succinyl-Ala-Phe-Pro-Phe-para-nitroanilide 5 mg/mL in 2.35 mM LiCl in trifluoroethanol).
The absorbance at 390 nm versus time is monitored for 90 seconds using a spectrophotometer and the rate constants are determined from the absorbance versus time data files.
“3-(1-Naphthyl)-1-propyl (2S)-1-(3,3-dimethyl-2-oxopentanoyl)-2-pyrrolidinecarbothioate [Compound 47]”: the pKi was 7.68. With “3-(para-Methoxyphenyl)-1-propyl 1-(2-phenyl-1,2-dioxoethyl)piperidine-2-carbothioate [Compound 43]”, the pKi was 6.59.

Turning to “3-Phenyl-1-propyl 1-(3,3-dimethyl-1,2-dioxobutyl)-2-piperidinecarbothioate [Compound 29]”, the negative-log Ki (pKi) is 7.23. Same read-out and setting: to “2-Phenyl-1-ethyl 1-(3,3-dimethyl-1,2-dioxopentyl)-2-piperidinecarbothioate [Compound 10]” belongs 7.92; to “4,4-Di(para-fluorophenyl)butyl 1-(3,3-dimethyl-2-oxopentanoyl)-2-pyrrolidinecarbothioate [Compound 46]”, 6.12. As to “3-(3-Fluorophenyl)propyl (2S)-1-(3,3-dimethyl-2-oxopentanoyl)-2-pyrrolidinecarbothioate [Compound 58]”, the pKi is 7.10. The same measure, in the same setting: as for `CC(C)(C)C(=O)C(=O)N1CCC[C@H]1C(=O)CCCCc1ccccc1` [Compound 3, (2S)-2-(1-oxo-5-phenyl)-pentyl-1-(3,3-dimethyl-1,2-dioxobutyl)pyrrolidine], the figure is 7.07.

In the case of “3-(3-Fluorophenyl)propyl 1-(3,3-dimethyl-2-oxopentanoyl)-2-piperidinecarbothioate [Compound 64]”, the pKi was 6.79. On the same count and under the same terms, to “3-Phenylpropyl 1-(3,3-dimethyl-2-oxopentanoyl)-2-piperidinecarbothioate [Compound 60]” belongs 7.05; to “3-(2-Chlorophenyl)propyl (2S)-1-(3,3-dimethyl-2-oxopentanoyl)-2-pyrrolidinecarbothioate [Compound 61]”, 6.86; to `CCC(C)(C)C(=O)C(=O)N1CCC[C@H]1C(=O)CCCCc1ccccc1` [Compound 1, (2S)-3,3-dimethyl-1-[2-(5-phenylpentanoyl)pyrrolidinyl]pentane-1,2-dione], 7.51. Same read-out and setting: as for “2-Phenyl-1-ethyl (2S)-1-(1-cyclopentyl-1,2-dioxoethyl)-2-pyrrolidinecarbothioate [Compound 28]”, the figure is 6.97; as for “1,5-Diphenyl-3-pentyl 1-(3,3-dimethyl-1,2-dioxopentyl)-2-piperidinecarbothioate [Compound 40]”, 5.91; as for `CCC(C)(C)C(=O)C(=O)N1CCCC[C@H]1C(=O)SCC(c1ccccc1)c1ccccc1` [Compound 49, 2,2-Diphenylethyl (2S)-1-(3,3-dimethyl-2-oxopentanoyl)-2-piperidinecarbothicate], 5.87. On to `CCC(C)(C)C(=O)C(=O)N1CCCC1C(=O)SCc1csc2ccccc12` (stereo not shown) [Compound 11], for which the pKi was 6.52. On the same count and under the same terms, as for “4-Phenylbutyl 1-(3,3-dimethyl-2-oxopentanoyl)-2-piperidinecarbothioate [Compound 59]”, the figure is 6.02; as for “2-Phenyl-1-ethyl 1-(2-phenyl-1,2-dioxoethyl)-2-piperidinecarbothioate [Compound 14]”, 6.50. The same measure, in the same setting: as for “3-(3-Chlorophenyl)propyl (2S)-1-(3,3-dimethyl-2-oxopentanoyl)-2-pyrrolidinecarbothioate [Compound 54]”, the figure is 7.43. On the same count and under the same terms, as for “4-Phenyl-1-butyl (2S)-1-(2-cyclohexyl-1,2-dioxoethyl)-2-pyrrolidinecarbothioate [Compound 33]”, the figure is 5.77; as for “3-(3-Pyridyl)-1-propyl (2S)-1-(2-cyclohexyl-1,2-dioxoethyl)-2-pyrrolidinecarbothioate [Compound 35]”, 7.21; as for “3-Phenyl-1-propyl (2S)-1-(2-cyclohexyl-1,2-dioxoethyl)-2-pyrrolidinecarbothioate [Compound 32]”, 6.44. “4-Phenyl-1-butyl 1-(1,2-dioxo-3,3-dimethylbutyl)-2-piperidinecarbothioate [Compound 39]”: the pKi is 6.46. Take “4-Phenyl-1-butyl (2S)-1-(3,3-dimethyl-1,2-dioxopentyl)-2-pyrrolidinecarbothioate [Compound 34]”: the pKi was 7.47.

Consider “3-(1-Naphthyl)-1-propyl 1-(3,3-dimethyl-2-oxopentanoyl)-2-piperidinecarbothioate [Compound 53]”, for which the pKi is 6.58.

Turning to “3-(2-Fluorophenyl)propyl (2S)-1-(3,3-dimethyl-2-oxopentanoyl)-2-pyrrolidinecarbothioate [Compound 57]”, the pKi was 7.24. Still for that read-out and setting: to “2-Phenyl-1-ethyl (2S)-1-(2-cyclohexyl-1,2-dioxoethyl)-2-pyrrolidinecarbothioate [Compound 12]” belongs 6.35.
